Assay results published in US20120328717A1, “PHARMACEUTICAL KIT FOR TREATING NEURONAL DAMAGES” (priority 2011, published 2012).

Tests used:
[1] = tested on: middle cerebral artery occlusion (MCAO) animal models with ischemic strokes; test: Evaluation of brain edema (brain water content, wet-dry method) after MCAO; format: in vivo, Sprague-Dawley rats; details: Experiment 1; 48 hr after MCAO and reperfusion; 45 mg/kg MgSO4 i.v., 6 mg/kg nimesulide i.p.
Procedure: In the present experiments, middle cerebral artery occlusion (MCAO) known in the art was performed on SD rats to establish animal models with ischemic strokes by using occluding intra-luminal suture. The process for performing MCAO is briefly described as follows. A segment of 4-O nylon with blunted tip was inserted through the right internal carotid artery to occlude blood flow of middle cerebral artery (MCA). Laser Doppler flowmeter was used to monitor changes of cerebral blood flows in the MCA territory. […] Anesthetic time was limited to 20 minutes to minimize the influence of isoflurane on the outcome of MCAO. After recovery from anesthesia, rats without body asymmetry were regarded as failed MCAO models and excluded from further experiments. After MCAO was established for 90 min, intra-luminal occluder was removed to re-perfuse the brain. […] Herein, cerebral edema was determined by measuring the brain water content with the wet-dry method after MCAO was established for 48 hr. […] The difference of water content in ipsilateral and contralateral hemisphere (Δ% of water content) 48 hr after ischemia-reperfusion injury was evaluated with the wet-dry method.

[2] = tested on: middle cerebral artery occlusion (MCAO) animal models with ischemic strokes; test: Evaluation of infarct volume by TTC staining after MCAO and reperfusion; format: in vivo, Sprague-Dawley rats; details: Experiment 1; MCAO 90 min, reperfusion 72 hr; single dose: 45 mg/kg MgSO4 i.v. after MCAO or 6 mg/kg nimesulide i.p. before reperfusion
Procedure: 150 Sprague-Dawley rats (SD rats) weighing 220-250 gm were purchased from the Laboratory Animal Center of National Chung Kung University. In the present experiments, middle cerebral artery occlusion (MCAO) known in the art was performed on SD rats to establish animal models with ischemic strokes by using occluding intra-luminal suture. The process for performing MCAO is briefly described as follows. A segment of 4-O nylon with blunted tip was inserted through the right internal carotid artery to occlude blood flow of middle cerebral artery (MCA). Laser Doppler flowmeter was used to monitor changes of cerebral blood flows in the MCA territory. […] Anesthetic time was limited to 20 minutes to minimize the influence of isoflurane on the outcome of MCAO. After recovery from anesthesia, rats without body asymmetry were regarded as failed MCAO models and excluded from further experiments. After MCAO was established for 90 min, intra-luminal occluder was removed to re-perfuse the brain. […] When SD rats in each group were treated with MCAO for 90 min and reperfusion for 72 hr, infarct volumes were evaluated by TTC staining.

Row | Structure (SMILES) | post-ischemia brain edema (Δ% of water content, ipsilateral vs contralateral hemisphere) compared to SVe group [1] | infarct volume compared to SVe group [2]
1 | CS(=O)(=O)Nc1ccc([N+](=O)[O-])cc1Oc1ccccc1 [nimesulide, N-(4-Nitro-2-phenoxyphenyl)methane-sulfonamide] | cannot be Observed | no neuro-protective effect
2 | O=S(=O)([O-])[O-].[Mg+2] [MgSO4] | cannot be Observed | a decrease of infarct volume was not observed
